These are literature values, as cited in US20170231227A1, “ANTIFUNGAL-GRAFTED POLYOLEFIN” (priority 2016, published 2017).

Structures are written as SMILES.

In the case of `C[C@@H]1C/C=C/C=C/C=C/C=C/[C@H](O[C@@H]2O[C@H](C)[C@@H](O)[C@H](N)[C@@H]2O)C[C@@H]2O[C@](O)(C[C@@H](O)C[C@H]3O[C@@H]3/C=C/C(=O)O1)C[C@H](O)[C@H]2C(=O)O` [Natamycin, natamycin], the solubility in ethanol (pure ethanol) is listed as 40 ppm. Further, the solubility in water result (water) is listed as “poor”.
